Measured values as given in patent US8299056B2 (Signal Pharmaceuticals, LLC, priority 2008, dated 2012).

Molecular target: T1, Syk (Homo sapiens, UniProt P43405)
T1 construct: purchased Carna Biosciences
Experiment: Syk HTRF assay
Format: biochemical
Conditions: IC50 activity level, read-out: Activity Level
Protocol: Test compounds were prepared at a concentration of 1.5 mM in DMSO followed by 3-fold dilutions in Greiner […] polypropylene plates. A 1:4 dilution of compounds by 8 μL/well transfer from the polypropylene plates to 24 μL/well Assay Buffer in Costar 3710 384 well black plates was then performed. Kinases (13 μL/well) or Assay Buffer only (background controls; 50 mM HEPES pH 7.6, 1 mM DTT, 10 mM MgCl2, 0.01% Triton X100, 0.01% BSA and 0.1 mM EDTA) were added to Costar 3710 384-well black plates for the HTRF assays (Carna Biosciences) and compound was added from the 1:4 dilution plate. Syk start mix (87.5 μM ATP, 80 nM Substrate Peptide (American Peptide Company 332722) was added and the mixture was incubated at room temperature for 1 hour. Syk Stop Solution (120 mM EDTA in dilution buffer) was then added to the Syk HTRF assay plate and incubated at room temperature on a shaker for 2 minutes. Syk Antibody Mix (4.86 μg/mL DyLight 647 Streptavidin (Pierce 21824); 1 μg/mL Lance Eu-Anti-Phosphotyrosine (PerkinElmer AD0069)) was added to the Syk HTRF assay plate and the mixture was further incubated at room temperature for >4 h. Time resolved fluorescence was read in assay plates on a PerkinElmer EnVision. HTRF assays were performed using 320 nm excitation, 60 μs delay, 665 nm and 615 nm emission. Data was expressed by division of 665 nm by 615 nm emissions.

First: Cc1cc(Nc2nc3cccc(N[C@H]4CC[C@@H](O)CC4)n3n2)c2c(c1)N(C)C(=O)C2 [Example 554, cis-4-(5-(4-hydroxycyclohexylamino)-[1,2,4]triazolo[1,5-a]pyridin-2-ylamino)-1,6-dimethylindolin-2-one]
Second: NC(=O)c1ccc(Nc2nc3cccc(N[C@H]4CC[C@@H](N)CC4)n3n2)cc1 [Example 493, cis-4-(5-(4-aminocyclohexylamino)-[1,2,4]triazolo[1,5-a]pyridin-2-ylamino)benzamide]
The IC50 of the first is higher: 500 to 1000 nM for the first, 0.005 to 250 nM for the second. The second is the more potent here.

`Cc1n[nH]c2cc(Nc3nc4cccc(C(F)(F)C5COCCO5)n4n3)ccc12` (stereo not shown) [Example 563, 5-((1,4-dioxan-2-yl)difluoromethyl)-N-(3-methyl-1H-indazol-6-yl)-[1,2,4]triazolo[1,5-a]pyridin-2-amine] and `Cn1c(=O)[nH]c2cc(Nc3nc4cccc(NC5CCOCC5)n4n3)ccc21` [Example 569, 1-methyl-5-(5-(tetrahydro-2H-pyran-4-ylamino)-[1,2,4-]triazolo[1,5-a]pyridin-2-ylamino)-1H-benzo[d]imidazol-2(3H)-one] fall in the same range of IC50: 0.005 to 250 nM for the first, 0.005 to 250 nM for the second.

`NCCn1cnc2ccc(-c3cccc4nc(Nc5ccccc5)nn34)cc21` [Example 515, 5-(1-(2-aminoethyl)-1H-benzo[d]imidazol-6-yl)-N-phenyl-[1,2,4]triazolo[1,5-a]pyridin-2-amine] and `NCCN1Cc2ccc(-c3cccc4nc(Nc5ccccc5)nn34)cc2C1=O` [Example 495, 2-(2-aminoethyl)-6-(2-(phenylamino)-[1,2,4]triazolo[1,5-a]pyridin-5-yl)isoindolin-1-one] fall in the same range of IC50: 1000 to 10000 nM for the first, 1000 to 10000 nM for the second.

`c1ccc(Nc2nc3cccc(-c4ccccn4)n3n2)cc1` [Example 488, N-phenyl-5-(pyridin-2-yl)-[1,2,4]triazolo[1,5-a]pyridin-2-amine] and `Oc1cc(-c2cccc3nc(Nc4ccccc4)nn23)ccn1` [Example 517, 4-(2-(phenylamino)-[1,2,4]triazolo[1,5-a]pyridin-5-yl)pyridin-2-ol] fall in the same range of IC50: 1000 to 10000 nM for the first, 1000 to 10000 nM for the second.

Compared with `CNC(=O)c1ccc(Nc2nc3cccc(NC4CCOCC4)n3n2)cc1` [Example 456, N-methyl-4-(5-(tetrahydro-2H-pyran-4-ylamino)-[1,2,4]triazolo[1,5-a]pyridin-2-ylamino)benzamide], `c1ccc(Nc2nc3cccc(N[C@@H]4CCNC4)n3n2)cc1` [Example 474, (R)-N^2-phenyl-N^5-(pyrrolidin-3-yl)-[1,2,4]triazolo[1,5-a]pyridin-2,5-diamine] is lower in IC50: 1000 to 10000 nM for the first, 500 to 1000 nM for the second. The second is the more potent here.

`NC(=O)c1ccc(Cc2cccc3nc(Nc4ccccc4)nn23)cc1` [Example 452, 4-((2-(phenylamino)-[1,2,4]triazolo[1,5-a]pyridin-5-yl)methyl)benzamide] and `O=C(c1ccccc1)c1cccc2nc(Nc3ccccc3)nn12` [Example 509, phenyl(2-(phenylamino)-[1,2,4]triazolo[1,5-a]pyridin-5-yl)methanone] fall in the same range of IC50: 1000 to 10000 nM for the first, 1000 to 10000 nM for the second.

First: Cn1ncc2ccc(Nc3nc4cccc(NC5CCCNC5)n4n3)cc21 (stereo in doubt) [Example 463, (R)-N^2-(1-methyl-1H-indazol-6-yl)-N^5-(piperidin-3-yl)-[1,2,4]triazolo[1,5-a]pyridin-2,5-diamine]
Second: Nc1cc(-c2cccc3nc(Nc4ccccc4)nn23)ccn1 [Example 445, 5-(2-aminopyridin-4-yl)-N-phenyl-[1,2,4]triazolo[1,5-a]pyridin-2-amine]
The IC50 of the first is higher: 500 to 1000 nM for the first, 0.005 to 250 nM for the second. The second is the more potent here.

For `Cc1conc1-c1cccc2nc(Nc3ccccc3)nn12` [Example 435, 5-(4-methylisoxazol-3-yl)-N-phenyl-[1,2,4]triazolo[1,5-a]pyridin-2-amine], the IC50 was 1000 to 10000 nM.

Same assay, conditions: activity levels A-D, read-out: Activity Level (IC50 in the Syk HTRF assay)

First: O=C1CCN(Cc2cccc3nc(Nc4ccc(C(F)(F)F)cc4)nn23)CCN1 [Example 269, 1-((2-(4-(trifluoromethyl)phenylamino)-[1,2,4]triazolo[1,5-a]pyridin-5-yl)methyl)-1,4-diazepan-5-one]
Second: OC1CCN(Cc2cccc3nc(Nc4ccc(C(F)(F)F)cc4)nn23)C1 (stereo in doubt) [Example 335, (R)-1-((2-(4-(trifluoromethyl)phenylamino)-[1,2,4]triazolo[1,5-a]pyridin-5-yl)methyl)pyrrolidin-3-ol]
The IC50 of the first is lower: 500 to 1000 nM for the first, 1000 to 10000 nM for the second.

First: CN(c1cccc2nc(Nc3ccc(C(F)(F)F)cc3)nn12)[C@H]1CC[C@@H](O)CC1 [Example 266, cis-4-(methyl(2-(4-(trifluoromethyl)phenylamino)-[1,2,4]triazolo[1,5-a]pyridin-5-yl)amino)cyclohexanol]
Second: OC1CCN(c2cccc3nc(Nc4ccc(C(F)(F)F)cc4)nn23)CC1 [Example 345, 1-(2-(4-(trifluoromethyl)phenylamino)-[1,2,4]triazolo[1,5-a]pyridin-5-yl)piperidin-4-ol]
The IC50 of the first is higher: 1000 to 10000 nM for the first, 500 to 1000 nM for the second.

First: O[C@H]1CCCC[C@@H]1Nc1cccc2nc(Nc3ccc(C(F)(F)F)cc3)nn12 [Example 334, (1S,2S)-2-(2-(4-(trifluoromethyl)phenylamino)-[1,2,4]triazolo[1,5-a]pyridin-5-ylamino)cyclohexanol]
Second: OC[C@H]1CCN(c2cccc3nc(Nc4ccc(C(F)(F)F)cc4)nn23)C1 [Example 327, (S)-(1-(2-(4-(trifluoromethyl)phenylamino)-[1,2,4]triazolo[1,5-a]pyridin-5-yl)pyrrolidin-3-yl)methanol]
The IC50 of the first is higher: 1000 to 10000 nM for the first, 250 to 500 nM for the second. The second is the more potent here.

First: COc1ccc(Nc2nc3cccc(-c4ccc5nc(CO)[nH]c5c4)n3n2)cn1 [Example 280, (6-(2-(6-methoxypyridin-3-ylamino)-[1,2,4]triazolo[1,5-a]pyridin-5-yl)-1H-benzo[d]imidazol-2-yl)methanol]
Second: CNC(=O)c1ccc(Nc2nc3cccc(CC(O)C4CCNCC4)n3n2)cc1 (stereo not shown) [Example 306, 4-(5-(2-hydroxy-2-(piperidin-4-yl)ethyl)-[1,2,4]triazolo[1,5-a]pyridin-2-ylamino)-N-methylbenzamide]
The IC50 of the first is lower: 250 to 500 nM for the first, 1000 to 10000 nM for the second.

Same assay, conditions: read-out: Activity Level (Syk HTRF assay IC50)

`CN(C)c1ccc(Nc2nc3cccc(-c4ccccc4)n3n2)cc1` [Example 94] and `c1ccc(-c2cccc3nc(Nc4ccc(-c5ncn[nH]5)cc4)nn23)cc1` [compound 56, N-(4-(1H-1,2,4-triazol-5-yl)phenyl)-5-phenyl-[1,2,4]triazolo[1,5-a]pyridin-2-amine] fall in the same range of IC50: 0.005 to 250 nM for the first, 0.005 to 250 nM for the second.

First: COCc1nc2ccc(Nc3nc4cccc(NC5CCOCC5)n4n3)cc2[nH]1 [Example 142, N^2-(2-(methoxymethyl)-1H-benzo[d]imidazol-6-yl)-N^5-(tetrahydro-2H-pyran-4-yl)-[1,2,4]triazolo[1,5-a]pyridine-2,5-diamine]
Second: COCc1nc2ccc(Nc3nc4cccc(N[C@H]5CC[C@@H](O)CC5)n4n3)cc2[nH]1 [Example 196, cis-4-(2-(2-(methoxymethyl)-1H-benzo[d]imidazol-6-ylamino)-[1,2,4]triazolo[1,5-a]pyridin-5-ylamino)cyclohexyl]
The IC50 of the first is higher: 250 to 500 nM for the first, 0.005 to 250 nM for the second. The second is the more potent here.

First: Fc1cccc(-c2cccc3nc(Nc4ccccc4)nn23)c1 [compound 81, 5-(3-fluorophenyl)-N-phenyl-[1,2,4]triazolo[1,5-a]pyridin-2-amine]
Second: N#Cc1cc(Nc2nc3cccc(-c4ccccc4)n3n2)ccn1 [compound 52]
The IC50 of the first is lower: 500 to 1000 nM for the first, 1000 to 10000 nM for the second.

`Cn1nc(N)c2ccc(Nc3nc4cccc(-c5ccccc5)n4n3)cc21` [compound 35] and `CNC(=O)c1ccc(Nc2nc3cccc(-c4cc(Cl)cc(-c5ccccc5C(N)=O)c4)n3n2)cc1` [compound 5, 3′-chloro-5′-(2-(4-(methylcarbamoyl)phenylamino)-[1,2,4]triazolo[1,5-a]pyridin-5-yl)biphenyl-2-carboxamide] fall in the same range of IC50: 0.005 to 250 nM for the first, 0.005 to 250 nM for the second.

First: CC1(C)NC(=O)c2cc(Nc3nc4cccc(N[C@H]5CC[C@@H](O)CC5)n4n3)ccc21 [compound 120, cis-6-(5-(4-hydroxycyclohexylamino)-[1,2,4]triazolo[1,5-a]pyridin-2-ylamino)-3,3-dimethylisoindolin-1-one]
Second: CC1(C)C(=O)Nc2cc(Nc3nc4cccc(N[C@@H]5CCOC5)n4n3)ccc21 [Example 150, (R)-3,3-dimethyl-6-(5-(tetrahydrofuran-4-ylamino)-[1,2,4]triazolo[1,5-a]pyridin-2-ylamino)indolin-2-one]
The IC50 of the first is higher: 250 to 500 nM for the first, 0.005 to 250 nM for the second. The second is the more potent here.

`CC1(C)C(=O)Nc2cc(Nc3nc4cccc(CC5CCOCC5)n4n3)ccc21` [Example 176, 3,3-dimethyl-6-(5-((tetrahydro-2H-pyran-4-yl)methyl)-[1,2,4]triazolo[1,5-a]pyridin-2-ylamino)indolin-2-one] and `CN(c1cccc2nc(Nc3ccc4c(c3)NC(=O)C4(C)C)nn12)C1CCOC1` (stereo in doubt) [compound 121, (S)-3,3-dimethyl-6-(5-(methyl(tetrahydrofuran-3-yl)amino)-[1,2,4]triazolo[1,5-a]pyridin-2-ylamino)indolin-2-one] fall in the same range of IC50: 0.005 to 250 nM for the first, 0.005 to 250 nM for the second.

First: CC1(C)C(=O)Nc2cc(Nc3nc4cccc(N5CC(O)C5)n4n3)ccc21 [Example 170, 6-(5-(3-hydroxyazetidin-1-yl)-[1,2,4]triazolo[1,5-a]pyridin-2-ylamino)-3,3-dimethylindolin-2-one]
Second: Cc1n[nH]c2ccc(Nc3nc4cccc(NC5CCOCC5)n4n3)cc12 [compound 117]
The IC50 of the first is lower: 0.005 to 250 nM for the first, 500 to 1000 nM for the second.
